Patent US6358885B1, “Substituted phenylheterocyclic herbicides” (Mississippi State University, priority 1992, dated 2002)

Assays:
Experiment in all cases: Test B preemergence/postemergence greenhouse plant response rating 0 to 10
barley = assay type: in vivo, Hordeum vulgare; details: 0 to 10 scale
Procedure, shortened: (§1)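 Postemergence treatment of plants two to eighteen cm tall ran alongside preemergence treatment of planted seed, each using compound in a non-phytotoxic solvent.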

barnyardgrass = assay type: in vivo, Echinochloa crus-galli; details: 0 to 10 scale
Procedure, shortened: as §1

bedstraw = assay type: in vivo, Galium aparine; details: 0 to 10 scale
Procedure, shortened: as §1

blackgrass = assay type: in vivo, Alopecurus myosuroides; details: 0 to 10 scale
Procedure, shortened: as §1

cheatgrass = assay type: in vivo, Bromus secalinus; details: 0 to 10 scale
Procedure, shortened: as §1

chickweed = assay type: in vivo, Stellaria media; details: 0 to 10 scale
Procedure, shortened: as §1

cocklebur = assay type: in vivo, Xanthium pensylvanicum; details: 0 to 10 scale
Procedure, shortened: as §1

corn = assay type: in vivo, Zea mays; details: 0 to 10 scale
Procedure, shortened: as §1

cotton = assay type: in vivo, Gossypium hirsutum; details: 0 to 10 scale
Procedure, shortened: as §1

crabgrass = assay type: in vivo, Digitaria spp.; details: 0 to 10 scale
Procedure, shortened: as §1

giant foxtail = assay type: in vivo, Setaria faberii; details: 0 to 10 scale
Procedure, shortened: as §1

lambsquarters = assay type: in vivo, Chenopodium album; details: 0 to 10 scale
Procedure, shortened: as §1

morningglory = assay type: in vivo, Ipomoea hederacea; details: 0 to 10 scale
Procedure, shortened: as §1

rape = assay type: in vivo, Brassica napus; details: 0 to 10 scale
Procedure, shortened: as §1

rice = assay type: in vivo, Oryza sativa; details: 0 to 10 scale
Procedure, shortened: as §1

sorghum = assay type: in vivo, Sorghum bicolor; details: 0 to 10 scale
Procedure, shortened: as §1

soybean = assay type: in vivo, Glycine max; details: 0 to 10 scale
Procedure, shortened: as §1

sugar beet = assay type: in vivo, Beta vulgaris; details: 0 to 10 scale
Procedure, shortened: as §1

velvetleaf = assay type: in vivo, Abutilon theophrasti; details: 0 to 10 scale
Procedure, shortened: as §1

wheat = assay type: in vivo, Triticum aestivum; details: 0 to 10 scale
Procedure, shortened: as §1

wild buckwheat = assay type: in vivo, Polygonum convolvulus; details: POSTEMERGENCE, 0 to 10 scale
Procedure, shortened: as §1

wild oat = assay type: in vivo, Avena fatua; details: 0 to 10 scale
Procedure, shortened: as §1

purple nutsedge = assay type: in vivo, Cyperus rotundus; details: 0 to 10 scale
Procedure, shortened: as §1

CCCCN1C(=O)COc2cc(F)c(-c3nn4c(c3Cl)CCCC4)cc21 [Compound 57]
Plant response rating, Barley (barley; POSTEMERGENCE, Rate 10 g/ha): 4 | Plant response rating, Barley (barley; POSTEMERGENCE, Rate 50 g/ha): 4 | Plant response rating, Barley (barley; PREEMERGENCE, Rate 10 g/ha): 0 | Plant response rating, Barley (barley; PREEMERGENCE, Rate 50 g/ha): 0 | Plant response rating, Barnyardgrass (barnyardgrass; POSTEMERGENCE, Rate 10 g/ha): 3 | Plant response rating, Barnyardgrass (barnyardgrass; POSTEMERGENCE, Rate 50 g/ha): 3 | Plant response rating, Barnyardgrass (barnyardgrass; PREEMERGENCE, Rate 10 g/ha): 0 | Plant response rating, Barnyardgrass (barnyardgrass; PREEMERGENCE, Rate 50 g/ha): 3 | Plant response rating, Bedstraw (bedstraw; POSTEMERGENCE, Rate 10 g/ha): 9 | Plant response rating, Bedstraw (bedstraw; POSTEMERGENCE, Rate 50 g/ha): 9 | Plant response rating, Bedstraw (bedstraw; PREEMERGENCE, Rate 10 g/ha): 6 | Plant response rating, Bedstraw (bedstraw; PREEMERGENCE, Rate 50 g/ha): 8 | Plant response rating, Blackgrass (blackgrass; POSTEMERGENCE, Rate 10 g/ha): 4 | Plant response rating, Blackgrass (blackgrass; POSTEMERGENCE, Rate 50 g/ha): 7 | Plant response rating, Blackgrass (blackgrass; PREEMERGENCE, Rate 10 g/ha): 3 | Plant response rating, Blackgrass (blackgrass; PREEMERGENCE, Rate 50 g/ha): 6 | Plant response rating, Cheatgrass (cheatgrass; POSTEMERGENCE, Rate 10 g/ha): 4 | Plant response rating, Cheatgrass (cheatgrass; POSTEMERGENCE, Rate 50 g/ha): 6 | Plant response rating, Cheatgrass (cheatgrass; PREEMERGENCE, Rate 10 g/ha): 3 | Plant response rating, Cheatgrass (cheatgrass; PREEMERGENCE, Rate 50 g/ha): 5 | Plant response rating, Chickweed (chickweed; POSTEMERGENCE, Rate 10 g/ha): 8 | Plant response rating, Chickweed (chickweed; POSTEMERGENCE, Rate 50 g/ha): 10 | Plant response rating, Chickweed (chickweed; PREEMERGENCE, Rate 10 g/ha): 6 | Plant response rating, Chickweed (chickweed; PREEMERGENCE, Rate 50 g/ha): 9 | Plant response rating, Cocklebur (cocklebur; POSTEMERGENCE, Rate 10 g/ha): 9 | Plant response rating, Cocklebur (cocklebur; POSTEMERGENCE, Rate 50 g/ha): 9 | Plant response rating, Cocklebur (cocklebur; PREEMERGENCE, Rate 10 g/ha): 0 | Plant response rating, Cocklebur (cocklebur; PREEMERGENCE, Rate 50 g/ha): 3 | Plant response rating, Corn (corn; POSTEMERGENCE, Rate 10 g/ha): 3 | Plant response rating, Corn (corn; POSTEMERGENCE, Rate 50 g/ha): 4 | Plant response rating, Corn (corn; PREEMERGENCE, Rate 50 g/ha): 0 | Plant response rating, Cotton (cotton; POSTEMERGENCE, Rate 10 g/ha): 10 | Plant response rating, Cotton (cotton; POSTEMERGENCE, Rate 50 g/ha): 10 | Plant response rating, Cotton (cotton; PREEMERGENCE, Rate 10 g/ha): 0 | Plant response rating, Cotton (cotton; PREEMERGENCE, Rate 50 g/ha): 2 | Plant response rating, Crabgrass (crabgrass; POSTEMERGENCE, Rate 10 g/ha): 2 | Plant response rating, Crabgrass (crabgrass; POSTEMERGENCE, Rate 50 g/ha): 3 | Plant response rating, Crabgrass (crabgrass; PREEMERGENCE, Rate 10 g/ha): 0 | Plant response rating, Crabgrass (crabgrass; PREEMERGENCE, Rate 50 g/ha): 0 | Plant response rating, Giant foxtail (giant foxtail; POSTEMERGENCE, Rate 10 g/ha): 5 | Plant response rating, Giant foxtail (giant foxtail; POSTEMERGENCE, Rate 50 g/ha): 6 | Plant response rating, Giant foxtail (giant foxtail; PREEMERGENCE, Rate 10 g/ha): 0 | Plant response rating, Giant foxtail (giant foxtail; PREEMERGENCE, Rate 50 g/ha): 2 | Plant response rating, Lambsquarter (lambsquarters; POSTEMERGENCE, Rate 10 g/ha): 9 | Plant response rating, Lambsquarter (lambsquarters; POSTEMERGENCE, Rate 50 g/ha): 10 | Plant response rating, Lambsquarter (lambsquarters; PREEMERGENCE, Rate 50 g/ha): 10 | Plant response rating, Morningglory (morningglory; POSTEMERGENCE, Rate 10 g/ha): 10 | Plant response rating, Morningglory (morningglory; POSTEMERGENCE, Rate 50 g/ha): 10 | Plant response rating, Morningglory (morningglory; PREEMERGENCE, Rate 50 g/ha): 10 | Plant response rating, Rape (rape; POSTEMERGENCE, Rate 10 g/ha): 10 | Plant response rating, Rape (rape; POSTEMERGENCE, Rate 50 g/ha): 10 | Plant response rating, Rape (rape; PREEMERGENCE, Rate 50 g/ha): 0 | Plant response rating, Rice (rice; POSTEMERGENCE, Rate 10 g/ha): 3 | Plant response rating, Rice (rice; POSTEMERGENCE, Rate 50 g/ha): 3 | Plant response rating, Rice (rice; PREEMERGENCE, Rate 50 g/ha): 0 | Plant response rating, Sorghum (sorghum; POSTEMERGENCE, Rate 10 g/ha): 2 | Plant response rating, Sorghum (sorghum; POSTEMERGENCE, Rate 50 g/ha): 4 | Plant response rating, Sorghum (sorghum; PREEMERGENCE, Rate 50 g/ha): 0 | Plant response rating, Soybean (soybean; POSTEMERGENCE, Rate 10 g/ha): 6 | Plant response rating, Soybean (soybean; POSTEMERGENCE, Rate 50 g/ha): 8 | Plant response rating, Soybean (soybean; PREEMERGENCE, Rate 50 g/ha): 0 | Plant response rating, Sugar beet (sugar beet; POSTEMERGENCE, Rate 10 g/ha): 10 | Plant response rating, Sugar beet (sugar beet; POSTEMERGENCE, Rate 50 g/ha): 10 | Plant response rating, Sugar beet (sugar beet; PREEMERGENCE, Rate 50 g/ha): 9 | Plant response rating, Velvetleaf (velvetleaf; POSTEMERGENCE, Rate 10 g/ha): 6 | Plant response rating, Velvetleaf (velvetleaf; POSTEMERGENCE, Rate 50 g/ha): 9 | Plant response rating, Velvetleaf (velvetleaf; PREEMERGENCE, Rate 50 g/ha): 10 | Plant response rating, Wheat (wheat; POSTEMERGENCE, Rate 10 g/ha): 7 | Plant response rating, Wheat (wheat; POSTEMERGENCE, Rate 50 g/ha): 7 | Plant response rating, Wheat (wheat; PREEMERGENCE, Rate 50 g/ha): 2 | Plant response rating, Wild buckwheat (wild buckwheat; Rate 10 g/ha): 10 | Plant response rating, Wild buckwheat (wild buckwheat; Rate 50 g/ha): 10 | Plant response rating, Wild oat (wild oat; POSTEMERGENCE, Rate 10 g/ha): 4 | Plant response rating, Wild oat (wild oat; POSTEMERGENCE, Rate 50 g/ha): 7 | Plant response rating, Wild oat (wild oat; PREEMERGENCE, Rate 50 g/ha): 5 | Plant response rating, Nutsedge (purple nutsedge; POSTEMERGENCE, Rate 10 g/ha): 2 | Plant response rating, Nutsedge (purple nutsedge; POSTEMERGENCE, Rate 50 g/ha): 4 | Plant response rating, Nutsedge (purple nutsedge; PREEMERGENCE, Rate 50 g/ha): 0
